According to paper PMC4858680, “A platinum-based hybrid drug design approach to circumvent acquired resistance to molecular targeted tyrosine kinase inhibitors” (Scientific Reports, 2016):
Read-outs that look alike come from different tables or passages of the source.

Key:
EGFR(T790M) = EGFR(T790M) (Homo sapiens, UniProt P00533, T790M); conditions: 10 μM
K562 = assay: Anticancer activity (cytotoxicity) in CML cell line; assay type: cell-based
HEK293 Mock transfected = assay: Anticancer activity in mock transfected HEK293; assay type: cell-based; conditions: Bcr-Abl negative
MET(Y1235D) = MET(Y1235D) (Homo sapiens, UniProt P08581, Y1235D); conditions: 10 μM
[1] = target: ABL1(E255K)-phosphorylated (Homo sapiens, UniProt P00519, E255K); conditions: 10 μM
[2] = target: ABL1(M351T)-phosphorylated (Homo sapiens, UniProt P00519, M351T); conditions: 10 μM
ABL1-phosphorylated = ABL1-phosphorylated (Homo sapiens, UniProt P00519); conditions: 10 μM
[3] = target: ABL1(F317L)-nonphosphorylated (Homo sapiens, UniProt P00519, F317L); conditions: 10 μM
[4] = target: ABL1(T315I)-nonphosphorylated (Homo sapiens, UniProt P00519, T315I); conditions: 10 μM
EPHB6 = target: T1, EPHB6 (Homo sapiens, UniProt O15197); assay: biochemical; conditions: read-out: Percent control
T1 sequence (O15197 32-1021): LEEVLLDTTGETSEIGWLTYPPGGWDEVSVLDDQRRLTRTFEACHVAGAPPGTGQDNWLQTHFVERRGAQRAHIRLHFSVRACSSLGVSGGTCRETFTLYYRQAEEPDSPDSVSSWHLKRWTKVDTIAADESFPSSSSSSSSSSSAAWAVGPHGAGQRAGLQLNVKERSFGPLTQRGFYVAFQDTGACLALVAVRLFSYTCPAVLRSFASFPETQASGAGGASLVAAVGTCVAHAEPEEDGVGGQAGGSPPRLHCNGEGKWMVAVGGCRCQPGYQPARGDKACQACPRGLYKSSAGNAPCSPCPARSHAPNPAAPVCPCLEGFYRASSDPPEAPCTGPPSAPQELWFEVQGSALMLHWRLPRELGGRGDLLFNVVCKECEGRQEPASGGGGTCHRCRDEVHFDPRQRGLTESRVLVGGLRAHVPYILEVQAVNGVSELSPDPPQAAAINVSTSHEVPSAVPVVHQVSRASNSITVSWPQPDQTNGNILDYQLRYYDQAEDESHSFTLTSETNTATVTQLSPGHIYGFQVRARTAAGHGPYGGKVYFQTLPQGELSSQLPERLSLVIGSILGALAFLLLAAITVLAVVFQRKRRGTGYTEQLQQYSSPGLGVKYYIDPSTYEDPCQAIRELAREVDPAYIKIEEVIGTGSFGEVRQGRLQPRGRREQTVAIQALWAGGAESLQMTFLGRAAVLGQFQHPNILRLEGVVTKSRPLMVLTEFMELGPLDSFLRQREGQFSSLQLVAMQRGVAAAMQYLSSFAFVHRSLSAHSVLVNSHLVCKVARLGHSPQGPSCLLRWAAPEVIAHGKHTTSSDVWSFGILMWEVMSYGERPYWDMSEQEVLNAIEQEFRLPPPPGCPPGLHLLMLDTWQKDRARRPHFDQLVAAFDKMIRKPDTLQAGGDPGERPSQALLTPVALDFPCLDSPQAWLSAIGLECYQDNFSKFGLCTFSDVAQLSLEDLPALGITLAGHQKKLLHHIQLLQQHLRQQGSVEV

FLT4 = FLT4 (Homo sapiens, UniProt P35916); assay: biochemical; conditions: read-out: Percent control
ALK = ALK (Homo sapiens, UniProt Q9UM73); assay: biochemical; conditions: read-out: Percent control
EGFR(L861Q) = EGFR(L861Q) (Homo sapiens, UniProt P00533, L861Q); assay: biochemical; conditions: read-out: Percent control
TIE2 = TIE2 (Homo sapiens, UniProt Q02763); assay: biochemical; conditions: read-out: Percent control
AXL = target: T2, AXL (Homo sapiens, UniProt P30530); assay: biochemical; conditions: read-out: Percent control
T2 sequence (P30530 26-894): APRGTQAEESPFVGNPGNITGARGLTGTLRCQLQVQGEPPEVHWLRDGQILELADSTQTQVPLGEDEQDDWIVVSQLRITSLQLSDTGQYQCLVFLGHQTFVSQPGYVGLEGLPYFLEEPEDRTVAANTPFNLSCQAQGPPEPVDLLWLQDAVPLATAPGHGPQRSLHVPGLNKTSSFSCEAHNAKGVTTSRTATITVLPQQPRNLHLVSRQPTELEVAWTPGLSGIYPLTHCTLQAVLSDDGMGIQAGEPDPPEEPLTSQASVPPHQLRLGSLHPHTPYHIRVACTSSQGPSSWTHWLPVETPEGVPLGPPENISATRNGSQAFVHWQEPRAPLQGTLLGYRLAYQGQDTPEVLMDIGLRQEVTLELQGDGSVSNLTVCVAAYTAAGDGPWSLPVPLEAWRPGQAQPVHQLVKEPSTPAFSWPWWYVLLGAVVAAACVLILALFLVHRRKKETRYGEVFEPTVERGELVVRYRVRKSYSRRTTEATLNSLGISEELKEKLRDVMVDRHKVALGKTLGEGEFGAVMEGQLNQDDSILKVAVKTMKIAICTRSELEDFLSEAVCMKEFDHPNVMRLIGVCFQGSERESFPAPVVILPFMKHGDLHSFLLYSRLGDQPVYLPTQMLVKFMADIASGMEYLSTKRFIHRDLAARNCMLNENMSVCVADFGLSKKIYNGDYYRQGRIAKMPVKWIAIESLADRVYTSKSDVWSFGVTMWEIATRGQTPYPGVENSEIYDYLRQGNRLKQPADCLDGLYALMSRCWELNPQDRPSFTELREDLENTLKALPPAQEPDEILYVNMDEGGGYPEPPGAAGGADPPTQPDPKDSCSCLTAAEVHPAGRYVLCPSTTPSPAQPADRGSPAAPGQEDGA

Sequence of FLT4 (P35916 25-1363): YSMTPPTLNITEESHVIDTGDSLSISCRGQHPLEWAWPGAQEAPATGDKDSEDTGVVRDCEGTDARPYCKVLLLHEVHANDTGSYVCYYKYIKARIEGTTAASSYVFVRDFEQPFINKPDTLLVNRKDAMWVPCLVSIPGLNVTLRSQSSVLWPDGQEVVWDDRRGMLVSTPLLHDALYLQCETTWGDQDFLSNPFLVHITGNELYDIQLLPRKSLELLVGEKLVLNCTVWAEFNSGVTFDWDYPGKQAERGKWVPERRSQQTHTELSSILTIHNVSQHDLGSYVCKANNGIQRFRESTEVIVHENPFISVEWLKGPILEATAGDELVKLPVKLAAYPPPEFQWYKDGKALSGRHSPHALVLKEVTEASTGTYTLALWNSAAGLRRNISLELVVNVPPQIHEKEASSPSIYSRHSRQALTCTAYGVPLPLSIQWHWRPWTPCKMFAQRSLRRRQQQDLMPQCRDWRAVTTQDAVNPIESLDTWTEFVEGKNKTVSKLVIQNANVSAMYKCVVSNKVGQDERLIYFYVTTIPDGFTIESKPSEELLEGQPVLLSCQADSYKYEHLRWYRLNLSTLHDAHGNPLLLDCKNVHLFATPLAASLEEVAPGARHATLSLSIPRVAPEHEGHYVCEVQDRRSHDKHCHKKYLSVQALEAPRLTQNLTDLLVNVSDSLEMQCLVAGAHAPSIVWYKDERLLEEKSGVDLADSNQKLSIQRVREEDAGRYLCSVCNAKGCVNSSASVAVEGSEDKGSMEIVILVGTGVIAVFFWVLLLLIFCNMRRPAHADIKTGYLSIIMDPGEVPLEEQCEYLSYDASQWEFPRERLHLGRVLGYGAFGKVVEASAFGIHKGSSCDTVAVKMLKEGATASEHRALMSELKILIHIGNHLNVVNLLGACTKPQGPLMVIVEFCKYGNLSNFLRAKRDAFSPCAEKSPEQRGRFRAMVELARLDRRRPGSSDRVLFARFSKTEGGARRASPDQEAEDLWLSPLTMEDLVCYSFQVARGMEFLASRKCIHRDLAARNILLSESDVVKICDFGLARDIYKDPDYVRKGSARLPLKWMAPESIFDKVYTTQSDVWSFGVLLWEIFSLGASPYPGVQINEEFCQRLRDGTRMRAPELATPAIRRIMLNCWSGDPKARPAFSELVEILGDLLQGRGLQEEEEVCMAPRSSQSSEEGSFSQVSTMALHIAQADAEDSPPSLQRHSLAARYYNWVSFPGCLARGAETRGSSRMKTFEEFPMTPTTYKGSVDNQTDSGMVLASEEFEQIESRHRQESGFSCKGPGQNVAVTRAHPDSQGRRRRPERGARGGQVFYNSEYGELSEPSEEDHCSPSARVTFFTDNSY
Sequence of MET(Y1235D) (P08581 25-1390 Y1235D): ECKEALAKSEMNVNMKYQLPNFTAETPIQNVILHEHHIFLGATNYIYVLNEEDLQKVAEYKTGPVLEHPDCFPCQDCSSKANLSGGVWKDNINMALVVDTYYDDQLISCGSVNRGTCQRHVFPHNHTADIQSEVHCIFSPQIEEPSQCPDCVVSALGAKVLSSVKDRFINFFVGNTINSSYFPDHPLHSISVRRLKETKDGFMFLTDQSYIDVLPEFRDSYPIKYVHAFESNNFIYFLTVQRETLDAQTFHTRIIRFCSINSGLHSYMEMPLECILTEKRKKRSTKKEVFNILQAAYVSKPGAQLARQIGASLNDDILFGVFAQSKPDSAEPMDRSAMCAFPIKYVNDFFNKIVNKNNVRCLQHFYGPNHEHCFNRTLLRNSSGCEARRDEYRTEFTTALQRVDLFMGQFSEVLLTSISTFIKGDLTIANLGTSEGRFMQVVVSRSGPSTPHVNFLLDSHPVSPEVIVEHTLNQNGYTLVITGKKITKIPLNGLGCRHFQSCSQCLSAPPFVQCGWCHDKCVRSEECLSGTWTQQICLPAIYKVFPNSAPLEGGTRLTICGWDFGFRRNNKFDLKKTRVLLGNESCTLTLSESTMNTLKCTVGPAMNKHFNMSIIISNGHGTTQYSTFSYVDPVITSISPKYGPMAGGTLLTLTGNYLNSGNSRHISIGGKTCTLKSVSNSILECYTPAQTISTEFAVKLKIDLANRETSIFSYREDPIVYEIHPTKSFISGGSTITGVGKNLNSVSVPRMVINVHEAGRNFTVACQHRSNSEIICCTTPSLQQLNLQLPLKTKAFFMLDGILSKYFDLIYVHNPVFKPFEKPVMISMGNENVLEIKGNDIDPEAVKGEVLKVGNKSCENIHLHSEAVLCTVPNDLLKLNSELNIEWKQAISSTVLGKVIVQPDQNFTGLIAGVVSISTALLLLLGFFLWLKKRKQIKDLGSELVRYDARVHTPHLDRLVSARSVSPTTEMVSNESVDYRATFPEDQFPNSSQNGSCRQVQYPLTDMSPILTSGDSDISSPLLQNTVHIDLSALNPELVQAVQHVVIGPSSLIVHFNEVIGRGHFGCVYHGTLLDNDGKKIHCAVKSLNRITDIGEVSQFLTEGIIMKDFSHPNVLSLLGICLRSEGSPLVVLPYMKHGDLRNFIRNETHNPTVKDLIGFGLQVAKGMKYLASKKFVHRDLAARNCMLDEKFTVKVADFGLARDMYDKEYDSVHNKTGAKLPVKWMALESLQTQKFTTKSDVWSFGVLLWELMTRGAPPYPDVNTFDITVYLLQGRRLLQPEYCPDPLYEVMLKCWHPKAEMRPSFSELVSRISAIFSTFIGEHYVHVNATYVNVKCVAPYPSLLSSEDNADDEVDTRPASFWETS
Sequence of ALK (Q9UM73 19-1620): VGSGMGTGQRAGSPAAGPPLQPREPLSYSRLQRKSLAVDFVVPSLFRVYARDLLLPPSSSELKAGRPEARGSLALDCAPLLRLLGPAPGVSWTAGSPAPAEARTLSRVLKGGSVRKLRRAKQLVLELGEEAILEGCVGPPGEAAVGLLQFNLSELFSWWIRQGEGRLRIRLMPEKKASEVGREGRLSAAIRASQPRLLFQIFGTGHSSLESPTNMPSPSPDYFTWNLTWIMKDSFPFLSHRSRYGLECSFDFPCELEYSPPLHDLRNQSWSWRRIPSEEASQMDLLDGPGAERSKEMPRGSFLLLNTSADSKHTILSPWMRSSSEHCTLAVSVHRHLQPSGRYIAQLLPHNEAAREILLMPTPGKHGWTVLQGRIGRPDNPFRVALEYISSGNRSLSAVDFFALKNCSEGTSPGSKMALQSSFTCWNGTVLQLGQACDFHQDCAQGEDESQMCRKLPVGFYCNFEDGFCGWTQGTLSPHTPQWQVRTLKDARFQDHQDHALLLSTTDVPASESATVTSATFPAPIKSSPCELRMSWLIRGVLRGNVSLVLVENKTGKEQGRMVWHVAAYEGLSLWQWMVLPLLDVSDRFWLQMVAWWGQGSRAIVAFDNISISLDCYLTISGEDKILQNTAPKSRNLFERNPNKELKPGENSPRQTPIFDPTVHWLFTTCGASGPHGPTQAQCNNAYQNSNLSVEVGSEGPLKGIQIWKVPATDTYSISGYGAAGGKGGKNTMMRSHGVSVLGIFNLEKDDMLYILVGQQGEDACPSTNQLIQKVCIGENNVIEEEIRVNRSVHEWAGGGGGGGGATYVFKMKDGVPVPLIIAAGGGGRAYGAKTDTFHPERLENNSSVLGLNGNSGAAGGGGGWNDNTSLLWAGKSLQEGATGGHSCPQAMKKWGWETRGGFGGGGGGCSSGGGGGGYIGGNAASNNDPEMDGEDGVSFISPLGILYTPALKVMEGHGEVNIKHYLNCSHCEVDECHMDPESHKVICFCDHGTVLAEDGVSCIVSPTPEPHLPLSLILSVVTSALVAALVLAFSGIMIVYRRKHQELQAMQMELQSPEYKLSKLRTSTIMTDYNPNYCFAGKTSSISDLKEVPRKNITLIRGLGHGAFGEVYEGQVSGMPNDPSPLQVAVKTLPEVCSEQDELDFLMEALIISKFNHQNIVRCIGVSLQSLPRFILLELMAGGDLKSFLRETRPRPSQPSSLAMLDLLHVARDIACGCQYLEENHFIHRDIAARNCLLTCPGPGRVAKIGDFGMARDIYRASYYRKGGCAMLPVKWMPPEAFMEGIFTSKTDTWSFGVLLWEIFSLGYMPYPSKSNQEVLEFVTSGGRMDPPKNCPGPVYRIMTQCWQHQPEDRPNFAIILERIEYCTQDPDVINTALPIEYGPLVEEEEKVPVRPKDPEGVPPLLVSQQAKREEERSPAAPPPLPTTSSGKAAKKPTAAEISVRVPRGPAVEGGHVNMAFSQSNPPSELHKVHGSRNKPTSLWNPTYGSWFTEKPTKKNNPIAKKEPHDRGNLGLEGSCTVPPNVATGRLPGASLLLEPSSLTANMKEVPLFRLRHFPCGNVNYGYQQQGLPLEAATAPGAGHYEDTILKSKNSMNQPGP

## Cc1ccc(NC(=O)c2ccc(CN3CCN(C)CC3)cc2)cc1Nc1nccc(-c2cccnc2)[n+]1[Pt-2]1([Cl])[NH2+]C2CCCCC2[NH2+]1 (stereo not shown) [1b, oxaliplatin-imatinib]
EGFR(T790M)
  Percent control: 78%
K562; CML cell line, Bcr-Abl positive, Table 1, read-out: Anticancer activity (IC50) K562
  IC50: 2270 ± 330 nM
K562; Table 2, read-out: Anticancer activity (IC50) K562 Sensitive parental
  IC50: 2270 ± 330 nM
HEK293 Mock transfected
  IC50: 10.6 ± 1.58 µM
MET(Y1235D)
  Percent control: 100%

## C#Cc1cccc(Nc2c3cc(OCCOC)c(OCCOC)cc3nc[n+]2[Pt@SP2-2]([NH3+])([NH3+])[Cl])c1 [2a, cisplatin-erlotinib]
[1]
  Percent control: 9.9%
[2]
  Percent control: 15%
ABL1-phosphorylated
  Percent control: 16%
[3]
  Percent control: 61%
[4]
  Percent control: 41%
MET(Y1235D)
  Percent control: 92%

## C#Cc1cccc(Nc2ncnc3cc(OCCOC)c(OCCOC)cc23)c1 [Erlotinib]
EPHB6
  remaining activity at 10 µM: 14.5%
FLT4
  remaining activity at 10 µM: 17.4%
ALK
  remaining activity at 10 µM: 10.7%

## Cc1ccc(NC(=O)c2ccc(CN3CCN(C)CC3)cc2)cc1Nc1nccc(-c2cccnc2)n1 [Imatinib, reference compound]
EGFR(L861Q)
  remaining activity at 10 µM: 100%

## COc1cc2c(Nc3ccc(Br)cc3F)ncnc2cc1OCC1CCN(C)CC1 [Vandetanib, reference compound]
TIE2
  remaining activity at 10 µM: 9.1%
EPHB6
  remaining activity at 10 µM: 0.8%
AXL
  remaining activity at 10 µM: 2.4%
FLT4
  remaining activity at 10 µM: 9.9%
